From patent US20250170141A1, “MRGPRX2 MODULATORS AND RELATED METHODS OF TREATMENT” (Escient Pharmaceuticals, Inc., priority 2023, published 2025)
Read-outs that look alike come from different tables or passages of the source.

Tests used:
[1] = Mouse Pharmacokinetic Studies (50 mg/kg oral gavage, plasma LC-MS/MS); format: in vivo; conditions: male C57BL/6 mice, non-fasted, 50 mg/kg
Experimental: Compounds were formulated in 5% DMSO, 5% Solutol, and 90% PBS without Ca and Mg (pH 7.4) at a concentration of […]. Male C57BL/6 mice (n=6/compound) were administered a 50 mg/kg dose of each compound by oral gavage under a non-fasted condition. Blood samples were collected via the Submandibular vein onto K2-EDTA at 0.5, 1, 2, 4, 8 and 24 hours after dosing, and plasma was prepared and stored at −80° C. until analysis. Plasma sample preparation for analysis was done by protein precipitation using acetonitrile (including Verapamil as an internal standard) followed by centrifugation. Compound concentrations were determined in extracted plasma using LC-MS/MS relative to a 12-point standard curve covering the 1 to 4000 nM range. Non-compartmental analysis using Phoenix WinNonlin was used to estimate pharmacokinetic parameters including area under the curve, clearance, and half-life. The administered dose was confirmed by analysis of residual dosing material by UPLC-UV relative to a single point calibration sample.

[2] = tested on: Human LAD2 cells; assay: Mast Cell Beta-Hexosaminidase Release Assay (LAD2 cells, 500 nM Cortistatin-14); format: cell-based; conditions: read-out: MRGPRX2 Antagonist Activity
Experimental: Human LAD2 cells (NIH) were maintained in an incubator at 37° C. with 5% CO2 and cultured in StemPro-34 serum-free media (Gibco 10639011) supplemented with 2 mM L-glutamine, 100 U/ml penicillin, […] streptomycin and 100 ng/ml SCF (Invitrogen PEP0860), at a concentration of 2-5×10^5 cells/mL, with hemidepletion every 1-2 weeks.
Cells were transferred to SCF-Free medium at 2.5×10^5 cells/mL and kept in an incubator overnight. On the day of the assay, cells were washed twice in Assay Buffer (final concentrations 10 mM HEPES, 137 mM NaCl, 5.6 mM D-glucose, 2.7 mM KCl, 1 mM MgCl, 1.8 mM CalCl2, 0.4 mM Na2HPO4·7H2O, 0.04% BSA, pH=7.4) and plated in a 96-well v-bottom plate at 20,000 cells per well in 80 μL Assay Buffer. Antagonist compounds solubilized at 10 mM in DMSO were diluted in Assay Buffer to 10× final desired concentrations as a 10-point curve (10 μM final top concentration with 1:3 serial dilutions) and 10 μL added per well. Plates were then incubated for 1 hour at 37° C. Agonists were diluted in Assay Buffer to 10× desired concentrations and 10 μL of the appropriate agonist added to each well. The final concentration of Cortistatin-14 (Tocris 3374) used in antagonist assays was 500 nM. Final concentrations of DMSO were kept consistent across the plate. Plates were then incubated in a warm air oven for 30 minutes at 37° C., followed by centrifugation at 4° C. for 5 minutes at 450×g. 50 μL supernatant from each well was then transferred to a 96-well flat bottom plate containing 100 μL substrate solution per well (3.5 mg/mL p-Nitrophenyl-N-acetyl-o-D-glucosaminide (Sigma 487052) in Citrate Buffer containing a final concentration of 40 mM Citric Acid, 20 mM Na2HPO4·7H2O, pH=4.5). To the cell pellets left in the remaining assay buffer, 150 μL 0.1% Triton-X-100 was then added to each well, resuspended by pipetting up and down, and 50 μL cell lysates transferred to a second 96-well flat bottom plate containing 100 μL substrate solution per well. Plates containing transferred supernatant and cell lysates were then incubated in a warm air oven for 90 minutes at 37° C. After incubation, 50 μL of 400 mM Glycine buffer (pH 10.7) was added into each well and the plate was read on a Molecular Devices SpectraMax iD5 plate reader (absorbance at 405 nm with reference filter at 620 nm). After background subtraction, the percentage degranulation (percent beta-hexosaminidase release) was calculated as 100×(supernatant values)/(supernatant+lysate values), followed by analysis using GraphPad Prism software to calculate an IC50 value for each compound.
The activity ranges are denoted as follows: “+++++” denotes antagonist activity <100 nM; “++++” denotes antagonist activity between 100 and 500 nM; “+++” denotes activity between 501 and 1000 nM; “++” denotes activity between 1001 and 2500 nM; and “+” denotes activity >2500 nM.

[3] = target: T1, human MRGPRX2 (Homo sapiens, UniProt Q96LB1); assay: MRGPRX2 activity: IP-One Gq HTRF assay in CHO cells, antagonism versus 0.3 uM Cortistatin-14; format: cell-based; conditions: versus 0.3 uM Cortistatin-14 agonist, CHO cells expressing human MRGPRX2, read-out: MRGPRX2 Antagonist Activity
T1 construct: expressed in transfected cells; host or cells: CHO cells, stably transfected (G418 and Hygromycin B selection)
T1 sequence (Q96LB1 1-330): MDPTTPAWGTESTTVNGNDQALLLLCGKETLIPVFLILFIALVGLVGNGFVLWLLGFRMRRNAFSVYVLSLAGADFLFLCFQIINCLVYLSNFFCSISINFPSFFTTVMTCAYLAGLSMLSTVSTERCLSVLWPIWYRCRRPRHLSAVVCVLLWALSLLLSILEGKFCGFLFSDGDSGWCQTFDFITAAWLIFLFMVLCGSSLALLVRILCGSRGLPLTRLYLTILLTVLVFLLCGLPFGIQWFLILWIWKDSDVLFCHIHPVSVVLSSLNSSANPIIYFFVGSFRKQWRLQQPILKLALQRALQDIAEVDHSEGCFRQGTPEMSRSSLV
How it was run: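 Antagonist IC50 was derived from the HTRF IP-1 signal after co-addition of compounds (10 points, top 30 uM, 3-fold steps) and 0.3 μM Cortistatin-14 agonist to human MRGPRX2-expressing CHO cells. Assay buffer contained 50 mM LiCl, pH 8; plates sat 1 h at 37 °C, then 1 h at room temperature.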

| Structure (SMILES) | IC50 [3] [nM] | also measured |
| --- | --- | --- |
| CC(c1ccccc1F)c1c(F)ccc2c1NC(NCc1ncccc1F)=NS2(=O)=O (single isomer, unassigned) [Compound 10-1A] | < 100 | Cmax [1]: 4.6 µM; TBC [1]: 26 mL/min/kg; half-life ([1]; male, C57BL/6, mouse, po): 2.6 h; IC50 ([2]; Homo sapiens, LAD2, Mast Cell Beta-Hexosaminidase Release Assay): 100 to 500 nM |
| CC(c1ccccc1F)c1c(F)ccc2c1NC(NCc1cccc(F)n1)=NS2(=O)=O (single isomer, unassigned) [Compound 10-2A] | < 100 | Cmax [1]: 2.7 µM; T1/2 [1]: 3.0 h; TBC [1]: 30 mL/min/kg; IC50 ([2]; Mast Cell Beta-Hexosaminidase Release Assay): 501 to 1000 nM |
| CC(c1cccc(OC(F)(F)F)c1)c1c(F)ccc2c1NC(NCc1cccc(F)c1)=NS2(=O)=O (stereo not shown) [Compound 22-14, 6-fluoro-3-((3-fluorobenzyl)amino)-5-(1-(3-(trifluoromethoxy)phenyl)ethyl)-4H-benzo[e][1,2,4]thiadiazine 1,1-dioxide] | 100 to 500 | – |
| CC(c1ccc(Oc2ccccc2)cc1)c1c(F)ccc2c1NC(NCc1cccc(F)c1)=NS2(=O)=O (stereo not shown) [Compound 22-15, 6-fluoro-3-((3-fluorobenzyl)amino)-5-(1-(4-phenoxyphenyl)ethyl)-4H-benzo[e][1,2,4]thiadiazine 1,1-dioxide] | 501 to 1000 | – |
| CC(c1ccc(N2CCOCC2)cc1)c1c(F)ccc2c1NC(NCc1cccc(F)c1)=NS2(=O)=O (stereo not shown) [Compound 22-16, 6-fluoro-3-((3-fluorobenzyl)amino)-5-(1-(4-morpholinophenyl)ethyl)-4H-benzo[e][1,2,4]thiadiazine 1,1-dioxide] | 1000 to 2500 | – |
| CC(Cc1ccc(F)cc1)c1c(F)ccc2c1NC(NCc1cccc(F)c1)=NS2(=O)=O (stereo not shown) [Compound 22-17, 6-fluoro-3-((3-fluorobenzyl)amino)-5-(1-(4-fluorophenyl)propan-2-yl)-4H-benzo[e][1,2,4]thiadiazine 1,1-dioxide] | < 100 | – |
| CC(c1c(F)ccc2c1NC(NCc1cccc(F)c1)=NS2(=O)=O)c1c[nH]c2ccccc12 (stereo not shown) [Compound 22-18, 5-(1-(1H-indol-3-yl)ethyl)-6-fluoro-3-((3-fluorobenzyl)amino)-4H-benzo[e][1,2,4]thiadiazine 1,1-dioxide] | 100 to 500 | – |
| Cc1nn(C)cc1C(C)c1c(F)ccc2c1NC(NCc1cccc(F)c1)=NS2(=O)=O (stereo not shown) [Compound 22-19, 5-(1-(1,3-dimethyl-1H-pyrazol-4-yl)ethyl)-6-fluoro-3-((3-fluorobenzyl)amino)-4H-benzo[e][1,2,4]thiadiazine 1,1-dioxide] | < 100 | – |
| CC(c1ccc(S(C)(=O)=O)cc1)c1c(F)ccc2c1NC(NCc1cccc(F)c1)=NS2(=O)=O (stereo not shown) [Compound 22-20, 6-fluoro-3-((3-fluorobenzyl)amino)-5-(1-(4-(methylsulfonyl)phenyl)ethyl)-4H-benzo[e][1,2,4]thiadiazine 1,1-dioxide] | 100 to 500 | – |
| Cc1cc(C(C)c2c(F)ccc3c2NC(NCc2cccc(F)c2)=NS3(=O)=O)ccn1 (stereo not shown) [Compound 22-21, 6-fluoro-3-((3-fluorobenzyl)amino)-5-(1-(2-methylpyridin-4-yl)ethyl)-4H-benzo[e][1,2,4]thiadiazine 1,1-dioxide] | < 100 | – |
| Cc1ccc(C(C)c2c(F)ccc3c2NC(NCc2cccc(F)c2)=NS3(=O)=O)cc1 (stereo not shown) [Compound 22-22, 6-fluoro-3-((3-fluorobenzyl)amino)-5-(1-(p-tolyl)ethyl)-4H-benzo[e][1,2,4]thiadiazine 1,1-dioxide] | 100 to 500 | – |
| CC(c1cccc(N(C)C)c1)c1c(F)ccc2c1NC(NCc1cccc(F)c1)=NS2(=O)=O (stereo not shown) [Compound 22-23, 5-(1-(3-(dimethylamino)phenyl)ethyl)-6-fluoro-3-((3-fluorobenzyl)amino)-4H-benzo[e][1,2,4]thiadiazine 1,1-dioxide] | 100 to 500 | – |
| Cc1ccc(C(C)c2c(F)ccc3c2NC(NCc2cccc(F)c2)=NS3(=O)=O)cn1 (stereo not shown) [Compound 22-24, 6-fluoro-3-((3-fluorobenzyl)amino)-5-(1-(6-methylpyridin-3-yl)ethyl)-4H-benzo[e][1,2,4]thiadiazine 1,1-dioxide] | < 100 | – |
| CC(c1ccc(F)cc1F)c1c(F)ccc2c1NC(NCc1cccc(F)c1)=NS2(=O)=O (stereo not shown) [Compound 22-25, 5-(1-(2,4-difluorophenyl)ethyl)-6-fluoro-3-((3-fluorobenzyl)amino)-4H-benzo[e][1,2,4]thiadiazine 1,1-dioxide] | < 100 | – |
| COc1ccccc1C(C)c1c(F)ccc2c1NC(NCc1cccc(F)c1)=NS2(=O)=O (stereo not shown) [Compound 22-26, 6-fluoro-3-((3-fluorobenzyl)amino)-5-(1-(2-methoxyphenyl)ethyl)-4H-benzo[e][1,2,4]thiadiazine 1,1-dioxide] | < 100 | – |
| CC(c1ccc(F)c(C#N)c1)c1c(F)ccc2c1NC(NCc1cccc(F)c1)=NS2(=O)=O (stereo not shown) [Compound 22-27, 2-fluoro-5-(1-(6-fluoro-3-((3-fluorobenzyl)amino)-1,1-dioxido-4H-benzo[e][1,2,4]thiadiazin-5-yl)ethyl)benzonitrile] | < 100 | – |
| [2H]c1ccc2c(c1[C@H](C)c1ccccc1F)NC(NCc1ncccc1F)=NS2(=O)=O [Compound 23-1, (S)-5-(1-(2-fluorophenyl)ethyl)-3-(((3-fluoropyridin-2-yl)methyl)amino)-4H-benzo[e][1,2,4]thiadiazine 1,1-dioxide-6-d] | < 100 | – |
| C[C@H](c1ccccc1F)c1c(F)ccc2c1NC(NCc1ccccc1F)=NS2(=O)=O [Compound 24-1, (R)-6-fluoro-3-((2-fluorobenzyl)amino)-5-(1-(2-fluorophenyl)ethyl)-4H-benzo[e][1,2,4]thiadiazine 1,1-dioxide] | < 100 | – |
| C[C@H](c1ccccc1F)c1c(F)ccc2c1NC(NCc1ccc(F)cc1F)=NS2(=O)=O [Compound 24-2, (R)-3-((2,4-difluorobenzyl)amino)-6-fluoro-5-(1-(2-fluorophenyl)ethyl)-4H-benzo[e][1,2,4]thiadiazine 1,1-dioxide] | < 100 | – |
| C[C@H](c1ccccc1F)c1c(F)ccc2c1NC(NCc1ccc3c(cnn3C)c1)=NS2(=O)=O [Compound 24-3, (R)-6-fluoro-5-(1-(2-fluorophenyl)ethyl)-3-(((1-methyl-1H-indazol-5-yl)methyl)amino)-4H-benzo[e][1,2,4]thiadiazine 1,1-dioxide] | < 100 | – |
